pIC50: −log10 of the molar value. Read-outs that look alike come from different tables or passages of the source.
How the values were obtained:
RGS8 = RGS8 (Homo sapiens (Human), UniProt P57771); assay: FCPIA: Gαo binding to RGS8; conditions: for RGS8 Hill Slope: Table 3; for pIC50: read-out: RGS8 IC50
Description: (§1) FCPIA Dose Response and Reversibility Experiments:

RGS4 [1] = target: RGS4 (Homo sapiens (Human), UniProt P49798); assay: FCPIA: Gαo binding to RGS4
Description: as §1

HEK293 cells = assay: Calcium mobilization induced by compound alone; type: cell-based; conditions: Homo sapiens, HEK293; read-out: Calcium transient (% 50014);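 further: percent of response to 10 µM reference CCG-50014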
Protocol: Calcium Mobilization Experiments:
A stable cell line was developed based upon the HEK-293 Flp-In TREx cell line (Invitrogen, Carlsbad, Calif.) that stably express the muscarinic M3 receptor and have human RGS4 expression under doxycycline control. Cells were maintained in DMEM supplemented with 10% fetal bovine serum and Penicillin (100 units/ml)-Streptomycin (100 μg/ml) under 5% CO2 at 37° C. For experiments, cells were split into 96-well black, clear bottom, poly-D-lysine coated microtiter plates (Nunc, Cat. #152037) at a density of 20,000 cells/well in DMEM containing 10% fetal bovine serum and Penicillin (100 units/ml), Streptomycin (100 μg/ml). RGS4 expression was induced by supplementing the medium with 1 μg/mL doxycycline for 24-48 hours before experimentation. Cells were loaded with Fluo-4 No Wash dye in buffer for 30 minutes at 37° C. Compounds and/or carbachol were added to the wells and the fluorescence intensity was measured using a FlexStation (Molecular Devices, Sunnyvale, Calif.) plate reader. Data analysis was performed by calculating the area under the curve or maximal fluorescence intensity from a 120 second kinetic measurement.

RGS4 [2] = assay: FCPIA: Gαo binding to RGS4; conditions: Table 3
Description: as §1

[3] = Table 3, duplex FCPIA, average of two experiments
[4] = Table 2, mean of two independent FCPIA experiments

Chain of RGS8 (P57771 other isoform, or with tags, fused parts or gaps): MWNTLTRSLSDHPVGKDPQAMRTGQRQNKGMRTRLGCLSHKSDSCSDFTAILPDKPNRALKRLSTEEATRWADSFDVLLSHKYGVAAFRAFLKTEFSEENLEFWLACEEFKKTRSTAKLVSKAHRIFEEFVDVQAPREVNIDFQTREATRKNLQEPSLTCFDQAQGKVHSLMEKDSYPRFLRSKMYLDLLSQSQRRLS
Chain of RGS4 (Homo sapiens (Human), UniProt P49798) (P49798 whole entry, looked up): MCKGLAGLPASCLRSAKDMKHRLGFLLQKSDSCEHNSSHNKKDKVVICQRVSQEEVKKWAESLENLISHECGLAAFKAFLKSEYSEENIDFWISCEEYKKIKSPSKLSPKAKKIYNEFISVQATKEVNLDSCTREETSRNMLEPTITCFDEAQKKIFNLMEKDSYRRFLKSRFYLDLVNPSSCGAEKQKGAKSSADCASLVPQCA

Row | SMILES | RGS8 Hill Slope (RGS8) | pIC50 (RGS8; Table 6, FCPIA) | Fold Selectivity (R8/R4) (RGS4 [1]) | Fold Selectivity (RGS8 IC50/ RGS4 IC50) (RGS4 [1]) | Selectivity RGS4/ RGS8 (RGS4 [1]) | RGS4 Hill Slope (RGS4 [1]; Table 3) | pIC50 (RGS4 [1]; [3]) | Emax at 10 µM (HEK293 cells) | pIC50 (RGS8; [4]) | pIC50 (RGS4 [1]; [4]) | pIC50 (RGS8; [3]) | RGS4 Hill Slope (RGS4 [2]) | pIC50 (RGS4 [1]; Table 6, FCPIA)
1 | Cc1ccc(-n2sc(=O)n(Cc3ccccc3)c2=O)cc1 [CCG-203724, 2-p-tolyl-4-benzyl-1,2,4-thiadiazolidine-3,5-dione] | −0.94 | 5.12 | 536 | 536 | 519 | −3.63 | 7.85 | 177% |  |  |  |  | 
2 | O=C1C=C(Br)C(=O)N1Cc1ccccc1 [CCG-203780] |  |  |  |  |  |  |  |  | < 4.00 | 4.49 |  |  | 
3 | Cc1ccc(Cn2c(=O)sn(-c3ccccc3)c2=O)cc1 [S9, 2-phenyl-4-(4-methylbenzyl)-1,2,4-thiadiazolidine-3,5-dione] | −0.87 | 5.08 |  |  |  |  |  | 12.2% |  |  | 5.08 | −1.50 | 
4 | Cc1ccc(Cn2c(=O)sn(-c3ccc(Cl)cc3)c2=O)cc1 [S10, 2-(4-chlorophenyl)-4-(4-methylbenzyl)-1,2,4-thiadiazolidine-3,5-dione] | −1.17 | 4.89 |  |  |  |  |  | 20% |  |  | 4.89 | −1.59 | 
5 | Cc1ccc(Cn2sc(=O)n(Cc3ccc(C)cc3)c2=O)cc1 [S13, 2,4-bis(4-methylbenzyl)-1,2,4-thiadiazolidine-3,5-dione] | −0.51 | 4.02 |  |  |  |  |  | 251% |  |  | 4.02 | −0.92 | 
6 | O=c1sn(-c2ccccc2)c(=O)n1Cc1cccc(Cl)c1 [S14, 2-phenyl-4-(3-chlorobenzyl)-1,2,4-thiadiazolidine-3,5-dione] | −1.47 | 5.03 |  |  |  |  |  | 57.7% |  |  | 5.03 | −1.41 | 
7 | Cc1cccc(-n2sc(=O)n(Cc3cccc(Cl)c3)c2=O)c1 [S16, 2-m-tolyl-4-(3-chlorobenzyl)-1,2,4-thiadiazolidine-3,5-dione] | −0.95 | 5.00 |  |  |  |  |  | 142% |  |  | 5.00 | −1.52 | 
8 | O=c1sn(-c2cccc(Cl)c2)c(=O)n1Cc1cccc(Cl)c1 [S17, 2-(3-chlorophenyl)-4-(3-chlorobenzyl)-1,2,4-thiadiazolidine-3,5-dione] | −1.66 | 4.68 |  |  |  |  |  | 67.8% |  |  | 4.68 | −1.55 | 
9 | Cc1cccc(Cn2c(=O)sn(-c3ccccc3)c2=O)c1 [S19, 2-phenyl-4-(3-methylbenzyl)-1,2,4-thiadiazolidine-3,5-dione] | −1.17 | 5.08 |  |  |  |  |  | 243% |  |  | 5.08 | −1.65 | 
10 | Cc1cccc(Cn2c(=O)sn(-c3cccc(C)c3)c2=O)c1 [S21, 2-m-tolyl-4-(3-methylbenzyl)-1,2,4-thiadiazolidine-3,5-dione] | −0.82 | 4.98 |  |  |  |  |  | 63.3% |  |  | 4.98 | −1.79 | 
11 | COc1ccc(Cn2c(=O)sn(-c3ccccc3)c2=O)cc1 [S24, 2-phenyl-4-(4-methoxybenzyl)-1,2,4-thiadiazolidine-3,5-dione] | −0.77 | 5.14 |  |  |  |  |  | 18.6% |  |  | 5.14 | −1.78 | 
12 | COc1ccc(Cn2c(=O)sn(-c3ccc(Cl)cc3)c2=O)cc1 [S25, 2-(4-chlorophenyl)-4-(4-methoxybenzyl)-1,2,4-thiadiazolidine-3,5-dione] | −0.73 | 5.00 |  |  |  |  |  | 84.6% |  |  | 5.00 | −3.26 | 
13 | COc1ccc(Cn2c(=O)sn(-c3ccc(OC)cc3)c2=O)cc1 [S26, 2-(4-methoxyphenyl)-4-(4-methoxybenzyl)-1,2,4-thiadiazolidine-3,5-dione] | −0.81 | 4.75 |  |  |  |  |  | 54.9% |  |  | 4.75 | −1.27 | 
14 | COc1ccc(Cn2c(=O)sn(-c3ccc(Cl)c(Cl)c3)c2=O)cc1 [S27, 2-(3,4-dichlorophenyl)-4-(4-methoxybenzyl)-1,2,4-thiadiazolidine-3,5-dione] | −1.50 | 4.44 |  |  |  |  |  | 63.4% |  |  | 4.44 | −1.04 | 
15 | COc1ccc(Cn2c(=O)sn(Cc3ccc(C)cc3)c2=O)cc1 [S28, 2-(4-methylbenzyl)-4-(4-methoxybenzyl)-1,2,4-thiadiazolidine-3,5-dione] | −0.64 | 4.03 |  |  |  |  |  | 169% |  |  | 4.03 | −2.42 | 
16 | O=c1sn(-c2ccccc2)c(=O)n1Cc1ccc(Cl)c(Cl)c1 [S29, 2-phenyl-4-(3,4-dichlorobenzyl)-1,2,4-thiadiazolidine-3,5-dione] | −0.80 | 5.12 |  |  |  |  |  | 47.6% |  |  | 5.12 | −0.96 | 
17 | O=c1sn(-c2ccc(Cl)cc2)c(=O)n1Cc1ccc(Cl)c(Cl)c1 [S30, 2-(4-chlorophenyl)-4-(3,4-dichlorobenzyl)-1,2,4-thiadiazolidine-3,5-dione] | −0.76 | 4.78 |  |  |  |  |  | -0.1% |  |  | 4.78 | −1.31 | 
18 | COc1ccc(-n2sc(=O)n(Cc3ccc(Cl)c(Cl)c3)c2=O)cc1 [S31, 2-(4-methoxyphenyl)-4-(3,4-dichlorobenzyl)-1,2,4-thiadiazolidine-3,5-dione] | −0.64 | 5.23 |  |  |  |  |  | 202% |  |  | 5.23 | −0.86 | 
19 | O=c1sn(-c2ccc(Cl)c(Cl)c2)c(=O)n1Cc1ccc(Cl)c(Cl)c1 [S32, 2-(3,4-dichlorophenyl)-4-(3,4-dichlorobenzyl)-1,2,4-thiadiazolidine-3,5-dione] | −0.85 | 3.90 |  |  |  |  |  | 49.6% |  |  | 3.90 | −0.87 | 
20 | Cc1ccc(Cn2sc(=O)n(Cc3ccc(Cl)c(Cl)c3)c2=O)cc1 [S33, 2-(4-methylbenzyl)-4-(3,4-dichlorobenzyl)-1,2,4-thiadiazolidine-3,5-dione] | −0.71 | 3.96 |  |  |  |  |  | 51.7% |  |  | 3.96 | −1.33 | 
21 | Cc1ccc(-n2sc(=O)n(Cc3ccc(C(C)(C)C)cc3)c2=O)cc1 [S34, 2-p-tolyl-4-(4-t-butylbenzyl)-1,2,4-thiadiazolidine-3,5-dione] |  | < 4.00 |  |  |  |  |  | 18.9% |  |  | < 4.00 | −1.36 | 
22 | CC(C)(C)c1ccc(Cn2c(=O)sn(-c3ccccc3)c2=O)cc1 [S35, 2-phenyl-4-(4-t-butylbenzyl)-1,2,4-thiadiazolidine-3,5-dione] |  | < 4.00 |  |  |  |  |  | 14.4% |  |  | < 4.00 | −1.72 | 
23 | CC(C)(C)c1ccc(Cn2c(=O)sn(-c3ccc(C(C)(C)C)cc3)c2=O)cc1 [S36, 2-(4-t-butylphenyl)-4-(4-t-butylbenzyl)-1,2,4-thiadiazolidine-3,5-dione] |  | < 4.00 |  |  |  |  |  | 14.8% |  |  | < 4.00 | −1.70 | 
24 | O=C1C=C(Br)C(=O)N1Cc1ccccc1 [S37, 1-benzyl-3-bromo-1H-pyrrole-2,5-dione] |  | 3.84 |  |  |  |  |  |  |  |  |  |  | 4.48
